Some test systems named below: TK-10; NCI-H460; HCC 2998; SNB-75; IGROV-1; OVCAR-4; SR; HCT-15; SF-268; M14; MDA-MB-435; SF-295; SK-MEL-2; HOP-92; DU-145; SF-539; MOLT-4; OVCAR-3; Malme-3M; RPMI-8226.
What all share (experiment): DTP human tumour cell line panel, 48 h

SMILES strings stand for the structures.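 Briefly, cells in 96-well plates were exposed to five compound concentrations for 48 h, and endpoints were estimated by linear interpolation. GI50 is the concentration that inhibits growth by half.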 The source made the active and inactive calls. Cut-off read from the data, not from the text of the source: active = GI50 up to about 1.1 µM and inactive = higher. A value given as a limit tells only on which side of the number the result lay.

As usually defined, the GI50 is the concentration that inhibits growth by half. `NC(=O)c1ccc(NCC2=CC(=O)C=CC2=O)cc1`: the GI50 with TK-10 is 17.7 µM (inactive); with NCI-H460, > 100 µM (inactive); in the test on HCC 2998, 35.8 µM (inactive); in the test on SNB-75, 21 µM (inactive); with IGROV-1 it was 20.8 µM (inactive); with OVCAR-4, 19.8 µM (inactive). For the same molecule, the GI50 is 24.9 µM (inactive) in the test on SR; 19.2 µM in the test with HCT-15; 22.9 µM (inactive) in the test with SF-268; 16.9 µM (inactive) with M14; 17.2 µM (inactive) in the test on MDA-MB-435; > 100 µM (inactive) in the test with SF-295. Besides, the GI50 in the test with SK-MEL-2 is 20.4 µM (inactive); in the test with HOP-92 it was 16.5 µM (inactive); in the test on DU-145, > 100 µM (inactive); in the test on SF-539, 17.1 µM (inactive); in the test on MOLT-4 it was 18.8 µM (inactive); in the test on OVCAR-3 it was 16.3 µM (inactive). Also, the GI50 is 19.5 µM (inactive) in the test with Malme-3M and 18.7 µM (inactive) in the test on RPMI-8226.

Turning to `CCc1cccc(C(C)C)c1NC1=C([n+]2ccc(C)cc2)C(=O)c2ccccc2C1=O.[O-][Cl+3]([O-])([O-])[O-]`, the GI50 in the test with TK-10 was 7.87 µM (inactive); with NCI-H460, 0.564 µM (active); in the test with HCC 2998, 3.21 µM (inactive); with SNB-75, 1.75 µM (inactive); with IGROV-1, 0.284 µM (active); with OVCAR-4, 1.73 µM (inactive). Further, the GI50 is 0.0525 µM (active) in the test with SR; 3.62 µM in the test on HCT-15; 0.359 µM (active) in the test with SF-268; 0.944 µM (active) in the test on M14; 1.7 µM (inactive) with MDA-MB-435; 1.87 µM (inactive) with SF-295. Further, the GI50 with SK-MEL-2 is 3.87 µM (inactive); in the test with HOP-92 it was 0.451 µM (active); in the test on DU-145 it was 0.667 µM (active); in the test on SF-539, 0.895 µM (active); in the test on MOLT-4, 0.3 µM (active); in the test on OVCAR-3 it was 0.647 µM (active). The GI50 is 2.12 µM (inactive) in the test with Malme-3M and 0.423 µM (active) in the test with RPMI-8226.

Regarding `COC(=O)NC(Cc1ccccc1)NC(=O)OC(C)(C)C` (stereo not given), the GI50 with TK-10, with NCI-H460, in the test on HCC 2998, in the test on SNB-75, in the test with IGROV-1 and with OVCAR-4 was > 100 µM (inactive) each time. For the same molecule, the GI50 in the test on SR is > 100 µM (inactive); with HCT-15, > 100 µM; in the test with SF-268, > 100 µM (inactive); in the test on M14, > 100 µM (inactive); in the test on MDA-MB-435, > 100 µM (inactive); in the test on SF-295, > 100 µM (inactive). The GI50 in the test with SK-MEL-2, in the test on HOP-92, in the test with DU-145, in the test with SF-539, in the test on MOLT-4 and with OVCAR-3 was > 100 µM (inactive) throughout. Also, the GI50 with Malme-3M and in the test with RPMI-8226 was > 100 µM (inactive) in each case.

Take `C=C(C)C(O)C(O)c1c(OC)ccc2ccc(=O)oc12` (stereo not given): the GI50 in the test with TK-10, with NCI-H460, in the test with HCC 2998, in the test on SNB-75, with IGROV-1 and in the test with OVCAR-4 was > 100 µM (inactive) throughout. In addition, the GI50 in the test with SR is > 100 µM (inactive); in the test with HCT-15, > 100 µM; with SF-268, > 100 µM (inactive); with M14 it was > 100 µM (inactive); in the test on MDA-MB-435, > 100 µM (inactive); in the test on SF-295, > 100 µM (inactive). The GI50 in the test on SK-MEL-2, with HOP-92, in the test with DU-145, with SF-539, with MOLT-4 and in the test on OVCAR-3 was > 100 µM (inactive) throughout. The GI50 in the test on Malme-3M and in the test with RPMI-8226 was > 100 µM (inactive) throughout.

Values taken from ChEMBL document CHEMBL1201862, “PubChem BioAssay data set” (2004).
